{"source": "patent US7087223B2", "about": "“Preventives and/or remedies for hyperphosphatemia” (Hisamitsu Pharmaceutical Co., Inc., priority 2000, dated 2006)", "key": {"[1]": {"system": "male SD rats", "experiment": "Effects on amount of urinary phosphorus in normal rats", "type": "in vivo", "details": "0.5 g in feed (20 g/rat/day) containing 0.58% phosphorus, 5 days, vs control, FIG. 2", "experimental": "Effects on Amount of Blood and Urinary Phosphorus in Normal Rats\nUsing male SD rats (aged 8 weeks), the experiments on suppressive effects for the increase of urinary phosphorus amount in the weakly basic anion exchange resin (Ionac A-365; Sybron Chemicals Co.) or calcium carbonate were carried out as follows.\nNamely, after the rats were given with feed (20 g/rat/day) containing 0.3% phosphorus for 7 days, feed (20 g/rat/day) containing 0.58% phosphorus was mixed with 0.5 g of Ionac A-365 or calcium carbonate and the mix feed was further administered to the rats for 5 days. Further, urine was collected for 24 hours before the drug administration and 5 days after the drug administration, and the amount of urinary phosphorus was calculated based on the urinary phosphorus concentration and the amount of urine. The urinary phosphorus concentration was measured by an inorganic phosphorus measurement reagent (P Test Wako). The increased amount of urinary phosphorus excretion was calculated based on the obtained difference of urinary phosphorus amount between before drug administration and 5 days after the drug administration, and compared with that of the non-administration group (control). As for rats in each group, 6 rats in each were subjected to the experiments."}, "[2]": {"system": "rats with ⅚ nephrectomy", "experiment": "Effects on blood phosphorus concentration and renal function in rats with 5/6 nephrectomy", "type": "in vivo, rat", "details": "0.3 g in 15 g of feed, 12 weeks after nephrectomy, vs control", "experimental": "Effects on Blood Phosphorus Concentration and Renal Function in Rats With ⅚ Nephrectomy\nUsing male SD rats (aged 9 weeks), the experiments on the effects for the lowering action of urinary phosphorus amount and the renal function in the weakly basic anion exchange resin (Ionac A-365; Sybron Chemicals. Co.) or calcium carbonate were carried out as follows.\nNamely, ⅔ of the left kidney was removed, after 1 week the right kidney being totally removed to make rats with ⅚ nephrectomy. After 1 week, a mixed feed administration of calcium carbonate or Ionac A-365 started. As a powder feed for rat MF manufactured by Oriental Yeast was used, and the administration dose was made 0.3 g content in 15 g of the feed. 12 weeks after the preparation of rats with ⅚ nephrectomy, blood was collected from the caudal vein, and the blood phosphorus concentration was measured by an inorganic phosphorus measurement reagent (P Test Wako). Also, urine was collected for 24 hours before the nephrectomy and 12 weeks after the nephrectomy, and the urinary protein concentration being measured by a protein measurement reagent (Protein Assay Kit, Bio-lad). As for rats in each group, 9 rats in each were subjected to the experiments."}}}
{"smiles": "O=C([O-])[O-].[Ca+2]", "note": "[calcium carbonate]", "values": [{"measurement": "increase of urinary phosphorus excretion", "setting": "[1]", "result": "significantly suppressed compared with that of control"}, {"measurement": "blood phosphorus concentration", "setting": "[2]; FIG. 3", "result": "no significant difference in blood phosphorus concentration compared with control"}, {"measurement": "increase of urinary protein excretion amount", "setting": "[2]; FIG. 4", "result": "significantly suppressed compared with control"}]}
